Measurements published in patent US20030125323A1, “Use of selective potassium channel openers” (priority 2001, published 2003).

Key:
[1] = tested on: obese female hyperinsulinemic nondiabetic Zucker rats; experiment: oral glucose tolerance test after 35 days treatment of obese Zucker rats; format: in vivo, rat; conditions: FIG. 1
Experimental: 14 obese female hyperinsulinemic nondiabetic Zucker rats were treated with the test compound 6-chloro-3-(1-methylcylodopropyl)amino-4H-thieno[3,2-e]-1,2,4-thiadiazine 1,1-dioxide and 14 were treated with vehicle for 35 days. After treatment, oral glucose tolerance was tested and found to be improved in animals treated with 6-chloro-3-(1-methylcylodopropyl)amino-4H-thieno[3,2-e]-1,2,4-thiadiazine 1,1-dioxide and the improvement was associated with decreased hyperinsulinemia.

[2] = tested on: KATP-channels on pancreatic β-cells; conditions: by activation of KATP-channels on pancreatic β-cells; Pirotte et al. 1993, 1994; cited from earlier work
[3] = tested on: women with Polycystic Ovary Syndrome (PCOS); conditions: Nestler et al. 1989; cited from earlier work

SMILES	hyperinsulinemia ([1]; associated with the improved glucose tolerance)	oral glucose tolerance ([1]; compared with vehicle)	insulin release [2]	concentrations of serum testosterone [3]	glycaemia (adverse effect due to the reduction in insulin) [3]	hyperinsulinaemia [3]
CC1(NC2=NS(=O)(=O)c3sc(Cl)cc3N2)CC1 [6-chloro-3-(1-methylcylodopropyl)amino-4H-thieno[3,2-e]-1,2,4-thiadiazine 1,1-dioxide]	decreased	improved				
CC1=Nc2ccc(Cl)cc2S(=O)(=O)N1 [diazoxide, 7-chloro-3-methyl-2H-1,2,4-benzothiadiazine 1,1-dioxide]			inhibit	reduce	significantly hyperglycemic	reduce
